Values of other authors as cited in patent publication US9915714B2, “MSC-SELMQC method for simultaneous mapping of polyunsaturated fatty acids, lactate and choline in high fat tissues” (University of Pittsburgh—Of the Commonwealth System of …, priority 2007, dated 2018).

System: RIF-1 tumors
Settings: following therapeutic intervention, 300 mg/kg; correlates with increases in tumor perfusion and permeability (Gd-DTPA uptake curves)

O=P1(N(CCCl)CCCl)NCCCO1 (stereo not shown) [cyclophosphamide]
lactate levels in RIF-1 tumors: decrease
